Experimental data taken from ChEMBL document CHEMBL1201862, “PubChem BioAssay data set” (2004).
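The compound was tested at five concentrations on cells cultured in 96-well plates, with a 48-hour exposure period. At the GI50, growth is halved.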 Calls of active or inactive are those of the source. No stated cut-off is given here; in the data, active = GI50 up to about 1.1 µM and inactive = higher.

How the values were obtained:
Assay in all cases: NCI tumour cell line growth inhibition, 48 h
DMS-114 = system: DMS-114
HOP-18 = system: HOP-18
DLD-1 = system: DLD-1
LXFL 529 = system: LXFL 529
DMS-273 = system: DMS-273
KM-20L2 = system: KM-20L2
XF498 = system: XF498
RXF 631 = system: RXF 631
Hs-578T = system: Hs-578T

O=c1[nH]c2cc(-c3ccccc3)nc-2nn1-c1c(Cl)cc(Cl)cc1Cl
GI50 (DMS-114): > 100 µM (inactive)
GI50 (HOP-18): 18.8 µM (inactive)
GI50 (DLD-1): 37.5 µM (inactive)
GI50 (LXFL 529): 30.5 µM (inactive)
GI50 (DMS-273): 37.3 µM (inactive)
GI50 (KM-20L2): 25.8 µM (inactive)
GI50 (XF498): 27.9 µM (inactive)
GI50 (RXF 631): 46 µM (inactive)

CCc1cccc(C(C)C)c1NC(=O)C(=O)C(CC(=O)Nc1ccc(Cl)c(Cl)c1)C(=O)OC (stereo not given)
GI50 (DMS-114): > 100 µM (inactive)
GI50 (HOP-18): 99.5 µM (inactive)
GI50 (DLD-1): 31 µM (inactive)
GI50 (DMS-273): 49.4 µM (inactive)
GI50 (KM-20L2): 26.2 µM (inactive)
GI50 (XF498): > 100 µM (inactive)
GI50 (RXF 631): > 100 µM (inactive)

COc1ccc(/C=c2\sc3nnc(CCC(=O)Nc4cccc(C(F)(F)F)c4)n3c2=O)cc1
GI50 (DMS-114): > 100 µM (inactive)
GI50 (HOP-18): 50.4 µM (inactive)
GI50 (DLD-1): > 100 µM (inactive)
GI50 (LXFL 529): > 87.1 µM (inactive)
GI50 (DMS-273): > 100 µM (inactive)
GI50 (KM-20L2): > 100 µM (inactive)
GI50 (XF498): > 100 µM (inactive)
GI50 (RXF 631): > 100 µM (inactive)

Cc1ccc([Se][Se]c2ccc(C)cc2)cc1
GI50 (DMS-114): 11.6 µM (inactive)
GI50 (HOP-18): 6.46 µM (inactive)
GI50 (DLD-1): 17.7 µM (inactive)
GI50 (LXFL 529): 4.76 µM (inactive)
GI50 (DMS-273): 16.4 µM (inactive)
GI50 (KM-20L2): 38.6 µM (inactive)
GI50 (XF498): 12.7 µM (inactive)
GI50 (RXF 631): 21.9 µM (inactive)

CC(O)C(NC(=O)C(CS)NC(=O)C(CO)NC(=O)C(CCCCN)NC(=O)C(Cc1c[nH]c2ccccc12)NC(=O)C(Cc1ccc(O)cc1)NC(=O)C(CS)NC(=O)C(N)Cc1ccccc1)C(N)=O (stereo not given)
GI50 (DMS-114): 35.8 µM (inactive)
GI50 (HOP-18): 22.6 µM (inactive)
GI50 (DLD-1): 22.1 µM (inactive)
GI50 (Hs-578T): > 25 µM (inactive)
GI50 (DMS-273): 20.9 µM (inactive)
GI50 (KM-20L2): 23.9 µM (inactive)
GI50 (XF498): 21.6 µM (inactive)
GI50 (RXF 631): 19.1 µM (inactive)

COc1cc(/C=C\c2ccc(Br)cc2)cc(OC)c1OC
GI50 (DMS-114): 0.000986 µM (active)
GI50 (HOP-18): 0.000721 µM (active)
GI50 (DLD-1): 0.00324 µM (active)
GI50 (LXFL 529): 0.000891 µM (active)
GI50 (DMS-273): 0.00332 µM (active)
GI50 (KM-20L2): 0.00033 µM (active)
GI50 (XF498): 0.000678 µM (active)
GI50 (RXF 631): 0.01 µM (active)

CC[C@@H](C(=O)[C@@H](C)[C@@H](O)[C@H](C)CCc1ccc(C)c(O)c1C(=O)O)[C@H]1O[C@](CC)([C@H]2CC[C@](O)(CC)[C@H](C)O2)C[C@@H]1C [LASALOCID A SODIUM]
GI50 (DMS-114): 0.946 µM (active)
GI50 (HOP-18): 3.08 µM (inactive)
GI50 (DLD-1): 3.61 µM (inactive)
GI50 (LXFL 529): 1.18 µM (inactive)
GI50 (DMS-273): 1.71 µM (inactive)
GI50 (KM-20L2): 1.78 µM (inactive)
GI50 (XF498): 1.25 µM (inactive)
GI50 (RXF 631): 0.741 µM (active)
